Data from patent US20240207263A1, “SELECTIVE MODULATORS OF ATAXIA TELA[…] (ATM) KINASE AND USES THEREOF” (priority 2021, published 2024).

Key:
[1] = tested on: phosp-KAP1 in MCF-7 cells; experiment: phosp-KAP1 MCF-7 cellular potency assay (Assay f); format: cell-based; conditions: Homo sapiens, MCF7; MCF-7 cells, etoposide; read-out: Etoposide MCF-7 cellular IC50
Protocol: Assay f): phosp-KAP1 MCF-7 Cellular Potency
MCF-7 cells were seeded to a 384-well cell-culture plate, 25 μl/well which were incubated at 37° C. and 5% CO2 for 24 hr. Test compounds were added to the 384-well plates. Etoposide at final concentration of 100 μM was then added to each well except Vehicle control wells, which were incubated at 37° C. and 5% CO2 for 1 hour. After medium removal, cells were fixed by the addition of 25 μl/well of 8% paraformaldehyde in PBSA and incubated for 20 minutes at room temperature. After the plates were rinsed 3 times with PBSA, 50 ul permeabilization buffer (0.1% Triton X-100 in PBS) was added and the plates were incubated for 20 minutes at room temperature. After the plates were rinsed with PBSA, block the cells by adding 50 μl of Odyssey Blocking Buffer in 384-well plate and then incubate for 1.5 hours at room temperature. Remove blocking buffer by Plate washer (BioTek ELx405 select CW). […] The plates were rinsed 5 times with PBST (0.1% Tween-20 in PBS).
• 1) Fluorescence intensity (FI) was detected for each well. • 2) % inhibition is calculated as follow:
[formula] • FIpositive: The average FI for the positive controls across the plate. • FIvehicle: The average FI for negative controls across the plate. • 3) Calculate IC50 and Plot effect-dose curve of compounds: • Calculate IC50 by fitting % inhibition values and log of compound concentrations to nonlinear regression (dose response−variable slope) with Graphpad prism 6.0.
Y=Bottom+(Top−Bottom)/(1+10^((Log IC50−X)*HillSlope)) • X: log of compounds concentration; Y: % inhibition

ATM = ATM (Homo sapiens (Human), UniProt Q13315); experiment: biochemical; format: biochemical; conditions: read-out: ATM IC50
Text: Assay a): ATM Biochemical Potency
Data was collected by Caliper.

ATM, sequence (Q13315 whole entry, looked up): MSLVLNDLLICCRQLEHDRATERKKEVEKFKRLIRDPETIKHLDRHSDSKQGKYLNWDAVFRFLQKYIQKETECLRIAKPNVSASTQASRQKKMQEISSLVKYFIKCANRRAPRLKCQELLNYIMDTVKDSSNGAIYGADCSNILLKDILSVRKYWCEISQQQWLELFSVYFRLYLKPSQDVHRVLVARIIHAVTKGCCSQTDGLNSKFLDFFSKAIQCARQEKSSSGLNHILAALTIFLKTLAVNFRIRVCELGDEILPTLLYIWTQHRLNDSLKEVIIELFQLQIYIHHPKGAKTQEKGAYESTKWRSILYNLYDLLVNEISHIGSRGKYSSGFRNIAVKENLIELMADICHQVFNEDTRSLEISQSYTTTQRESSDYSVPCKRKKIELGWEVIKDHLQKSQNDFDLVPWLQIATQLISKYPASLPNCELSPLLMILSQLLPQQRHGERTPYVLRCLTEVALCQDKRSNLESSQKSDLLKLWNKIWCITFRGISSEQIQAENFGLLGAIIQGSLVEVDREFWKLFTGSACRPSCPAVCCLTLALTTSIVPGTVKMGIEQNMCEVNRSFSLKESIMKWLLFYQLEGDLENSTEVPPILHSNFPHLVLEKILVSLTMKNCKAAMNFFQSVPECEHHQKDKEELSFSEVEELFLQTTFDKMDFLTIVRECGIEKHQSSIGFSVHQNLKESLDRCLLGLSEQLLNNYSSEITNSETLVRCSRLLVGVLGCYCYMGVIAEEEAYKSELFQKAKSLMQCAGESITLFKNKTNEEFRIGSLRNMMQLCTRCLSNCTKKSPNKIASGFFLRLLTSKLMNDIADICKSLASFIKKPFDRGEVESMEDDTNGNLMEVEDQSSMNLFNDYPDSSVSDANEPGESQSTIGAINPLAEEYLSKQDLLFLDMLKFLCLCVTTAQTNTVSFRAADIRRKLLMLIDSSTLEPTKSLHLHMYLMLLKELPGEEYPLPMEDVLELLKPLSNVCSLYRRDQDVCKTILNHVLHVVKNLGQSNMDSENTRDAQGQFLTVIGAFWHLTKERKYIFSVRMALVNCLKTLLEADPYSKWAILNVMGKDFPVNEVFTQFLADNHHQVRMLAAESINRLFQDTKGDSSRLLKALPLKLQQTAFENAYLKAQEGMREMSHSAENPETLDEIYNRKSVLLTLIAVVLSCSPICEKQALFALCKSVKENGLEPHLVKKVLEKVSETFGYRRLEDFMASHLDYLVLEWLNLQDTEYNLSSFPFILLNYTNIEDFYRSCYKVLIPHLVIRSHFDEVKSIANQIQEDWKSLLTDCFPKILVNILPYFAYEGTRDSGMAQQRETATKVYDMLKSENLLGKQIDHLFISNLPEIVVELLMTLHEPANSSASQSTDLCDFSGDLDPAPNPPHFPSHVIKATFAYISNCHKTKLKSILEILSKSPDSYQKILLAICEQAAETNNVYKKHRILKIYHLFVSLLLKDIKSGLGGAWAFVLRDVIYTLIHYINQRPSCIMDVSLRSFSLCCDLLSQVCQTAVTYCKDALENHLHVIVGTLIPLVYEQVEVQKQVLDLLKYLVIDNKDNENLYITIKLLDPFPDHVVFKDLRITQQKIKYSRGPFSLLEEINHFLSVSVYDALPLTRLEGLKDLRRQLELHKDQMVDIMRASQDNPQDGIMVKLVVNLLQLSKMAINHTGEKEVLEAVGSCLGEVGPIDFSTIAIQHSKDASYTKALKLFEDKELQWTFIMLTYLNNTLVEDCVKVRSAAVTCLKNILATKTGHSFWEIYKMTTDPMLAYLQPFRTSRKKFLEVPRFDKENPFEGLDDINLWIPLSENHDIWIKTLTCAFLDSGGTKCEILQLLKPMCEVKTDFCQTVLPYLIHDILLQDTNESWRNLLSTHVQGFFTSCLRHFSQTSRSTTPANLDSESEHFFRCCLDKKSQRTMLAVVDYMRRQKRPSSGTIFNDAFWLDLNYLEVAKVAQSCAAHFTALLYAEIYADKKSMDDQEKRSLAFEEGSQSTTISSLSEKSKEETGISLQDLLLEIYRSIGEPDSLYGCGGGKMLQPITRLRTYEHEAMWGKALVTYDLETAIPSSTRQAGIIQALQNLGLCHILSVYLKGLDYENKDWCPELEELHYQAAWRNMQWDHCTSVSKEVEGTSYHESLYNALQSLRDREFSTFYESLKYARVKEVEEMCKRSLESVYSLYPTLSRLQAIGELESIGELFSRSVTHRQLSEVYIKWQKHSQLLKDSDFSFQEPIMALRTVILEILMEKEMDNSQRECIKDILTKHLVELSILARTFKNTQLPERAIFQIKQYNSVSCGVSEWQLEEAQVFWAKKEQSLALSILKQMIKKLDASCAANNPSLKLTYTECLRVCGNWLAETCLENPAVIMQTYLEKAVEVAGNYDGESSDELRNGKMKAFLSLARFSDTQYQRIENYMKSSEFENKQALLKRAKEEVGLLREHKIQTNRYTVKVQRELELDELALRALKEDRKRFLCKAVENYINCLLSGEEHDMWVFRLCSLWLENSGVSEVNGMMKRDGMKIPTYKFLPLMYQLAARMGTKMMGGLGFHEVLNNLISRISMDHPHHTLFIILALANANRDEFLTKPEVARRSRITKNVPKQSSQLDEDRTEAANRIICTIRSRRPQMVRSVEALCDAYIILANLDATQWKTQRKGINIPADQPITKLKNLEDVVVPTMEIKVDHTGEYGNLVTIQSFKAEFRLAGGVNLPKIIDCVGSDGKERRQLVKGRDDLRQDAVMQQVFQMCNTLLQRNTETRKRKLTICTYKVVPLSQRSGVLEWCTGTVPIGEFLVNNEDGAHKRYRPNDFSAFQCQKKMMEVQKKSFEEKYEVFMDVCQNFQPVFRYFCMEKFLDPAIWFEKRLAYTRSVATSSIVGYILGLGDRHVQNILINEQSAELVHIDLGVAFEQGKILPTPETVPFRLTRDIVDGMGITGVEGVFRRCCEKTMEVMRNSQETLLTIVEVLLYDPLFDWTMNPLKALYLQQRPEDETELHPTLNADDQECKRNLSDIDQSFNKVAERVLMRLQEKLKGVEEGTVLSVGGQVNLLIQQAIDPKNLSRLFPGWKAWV

Compound | IC50 [1] | IC50 (ATM)
CC(C)n1c(=O)n(C)c2nnc3ccc(-c4ccc([C@@H](C)OCCN5CCC(OC(F)F)C5)nc4)cc3c21 (stereo partly drawn) [Example 54, 8-(6-((1R)-1-(2-(3-(difluoromethoxy)pyrrolidin-1-yl)ethoxy)ethyl)pyridin-3-yl)-1-isopropyl-3-methyl-1H-imidazo[4,5-c]cinnolin-2(3H)-one] | 17 nM | 
CC(C)n1c(=O)n(C)c2nnc3ccc(-c4ccc([C@@H](C)OCCN5CCC6(CC5)CC6)nc4)cc3c21 [Example 55, (R)-8-(6-(1-(2-(6-azaspiro[2.5]octan-6-yl)ethoxy)ethyl)pyridin-3-yl)-1-isopropyl-3-methyl-1H-imidazo[4,5-c]cinnolin-2(3H)-one] | 11 nM | 3.2 nM
CO[C@H]1CCN(CCO[C@H](C)c2ccc(-c3ccc4nnc5c(c4c3)n(C(C)C)c(=O)n5C)cn2)C1 [Example 59, 1-isopropyl-8-(6-((R)-1-(2-((S)-3-methoxypyrrolidin-1-yl)ethoxy)ethyl)pyridin-3-yl)-3-methyl-1H-imidazo[4,5-c]cinnolin-2(3H)-one] | 65 nM | 8.3 nM
CC(C)n1c(=O)n(C)c2nnc3ccc(-c4ccc([C@@H](C)OCCN5CCC6(COC6)C5)nc4)cc3c21 [Example 86, (R)-8-(6-(1-(2-(2-oxa-6-azaspiro[3.4]octan-6-yl)ethoxy)ethyl)pyridin-3-yl)-1-isopropyl-3-methyl-1H-imidazo[4,5-c]cinnolin-2(3H)-one] | 12 nM | 3.6 nM
Cn1c(=O)n(C2CCOCC2)c2c3cc(-c4ccc(COCCN5CCC(C)(C)C5)nc4)ccc3nnc21 [Example 97, 8-(6-((2-(3,3-dimethylpyrrolidin-1-yl)ethoxy)methyl)pyridin-3-yl)-3-methyl-1-(tetrahydro-2H-pyran-4-yl)-1H-imidazo[4,5-c]cinnolin-2(3H)-one] | 43 nM | 14 nM
C[C@@H](OCCN1CCC(C)(C)CC1)c1ccc(-c2ccc3nnc4c(c3c2)n(C2CCOCC2)c(=O)n4C)cn1 [Example 103, (R)-8-(6-(1-(2-(4,4-dimethylpiperidin-1-yl)ethoxy)ethyl)pyridin-3-yl)-3-methyl-1-(tetrahydro-2H-pyran-4-yl)-1H-imidazo[4,5-c]cinnolin-2(3H)-one] | 20 nM | 3.9 nM
CO[C@H]1CCN(CCO[C@H](C)c2ccc(-c3ccc4nnc5c(c4c3)n(C3CCOCC3)c(=O)n5C)cn2)C1 [Example 105, 8-(6-((R)-1-(2-((S)-3-methoxypyrrolidin-1-yl)ethoxy)ethyl)pyridin-3-yl)-3-methyl-1-(tetrahydro-2H-pyran-4-yl)-1H-imidazo[4,5-c]cinnolin-2(3H)-one] | 36 nM | 
COC1CCN(CCO[C@H](C)c2ccc(-c3ccc4nnc5c(c4c3)n(C3CCOCC3)c(=O)n5C)cn2)CC1 [Example 110, (R)-8-(6-(1-(2-(4-methoxypiperidin-1-yL)ethoxy)ethyl)pyridin-3-yl)-3-methyl-1-(tetrahydro-2H-pyran-4-yl)-1H-imidazo[4,5-c]cinnolin-2(3H)-one] | 13 nM | 6.9 nM
CO[C@H]1C[C@H](n2c(=O)n(C)c3nnc4ccc(-c5ccc(COCCN(C)C)nc5)cc4c32)C1 [Example 165, 8-(6-((2-(dimethylamino)ethoxy)methyl)pyridin-3-yl)-1-(trans-3-methoxycyclobutyl)-3-methyl-1H-imidazo[4,5-c]cinnolin-2(3H)-one] |  | 101 nM
CO[C@H]1C[C@H](n2c(=O)n(C)c3nnc4ccc(-c5ccc(COCCN6CCCC6)nc5)cc4c32)C1 [Example 166, 1-(trans-3-methoxycyclobutyl)-3-methyl-8-(6-((2-(pyrrolidin-1-yl)ethoxy)methyl)pyridin-3-yl)-1H-imidazo[4,5-c]cinnolin-2(3H)-one] |  | 58 nM
CO[C@H]1C[C@H](n2c(=O)n(C)c3nnc4ccc(-c5ccc(COCCN6CCC(F)CC6)nc5)cc4c32)C1 [Example 168, 8-(6-((2-(4-fluoropiperidin-1-yl)ethoxy)methyl)pyridin-3-yl)-1-(trans-3-methoxycyclobutyl)-3-methyl-1H-imidazo[4,5-c]cinnolin-2(3H)-one] |  | 48 nM
CO[C@H]1C[C@H](n2c(=O)n(C)c3nnc4ccc(-c5ccc(COCCN6CC7CC7C6)nc5)cc4c32)C1 (stereo partly drawn) [Example 169, 8-(6-((2-(3-azabicyclo[3.1.0]hexan-3-yl)ethoxy)methyl)pyridin-3-yl)-1-(trans-3-methoxycyclobutyl)-3-methyl-1H-imidazo[4,5-c]cinnolin-2(3H)-one] |  | 42 nM
CO[C@H]1C[C@@H](n2c(=O)n(C)c3nnc4ccc(-c5ccc([C@@H](C)OCCN6CCC7(CC6)CC7)nc5)cc4c32)C1 [Example 170, 8-(6-((R)-1-(2-(6-azaspiro[2.5]octan-6-yl)ethoxy)ethyl)pyridin-3-yl)-1-(cis-3-methoxycyclobutyl)-3-methyl-1H-imidazo[4,5-c]cinnolin-2(3H)-one] |  | 1.6 nM
CO[C@H]1C[C@@H](n2c(=O)n(C)c3nnc4ccc(-c5ccc([C@@H](C)OCCN6CCC7(CC7)C6)nc5)cc4c32)C1 [Example 171, 8-(6-((R)-1-(2-(5-azaspiro[2.4]heptan-5-yl)ethoxy)ethyl)pyridin-3-yl)-1-(cis-3-methoxycyclobutyl)-3-methyl-1H-imidazo[4,5-c]cinnolin-2(3H)-one] |  | 2.5 nM
CO[C@H]1C[C@@H](n2c(=O)n(C)c3nnc4ccc(-c5ccc(COCCN6CCCC6)nc5)cc4c32)C1 [Example 172, 1-(cis-3-methoxycyclobutyl)-3-methyl-8-(6-((2-(pyrrolidin-1-yl)ethoxy)methyl)pyridin-3-yl)-1H-imidazo[4,5-c]cinnolin-2(3H)-one] |  | 21 nM
CO[C@H]1C[C@@H](n2c(=O)n(C)c3nnc4ccc(-c5ccc(COCCN6CCCCC6)nc5)cc4c32)C1 [Example 173, 1-(cis-3-methoxycyclobutyl)-3-methyl-8-(6-((2-(piperidin-1-yl)ethoxy)methyl)pyridin-3-yl)-1H-imidazo[4,5-c]cinnolin-2(3H)-one] |  | 32 nM
CO[C@H]1C[C@@H](n2c(=O)n(C)c3nnc4ccc(-c5ccc(COCCN(C)C)nc5)cc4c32)C1 [Example 176, 8-(6-((2-(dimethylamino)ethoxy)methyl)pyridin-3-yl)-1-(cis-3-methoxycyclobutyl)-3-methyl-1H-imidazo[4,5-c]cinnolin-2(3H)-one] |  | 65 nM
Cn1c(=O)n(C2COC2)c2c3cc(-c4ccc(COCCN5CCC(F)CC5)nc4)ccc3nnc21 [Example 179, 8-(6-((2-(4-fluoropiperidin-1-yl)ethoxy)methyl)pyridin-3-yl)-3-methyl-1-(oxetan-3-yl)-1H-imidazo[4,5-c]cinnolin-2(3H)-one] |  | 729 nM
Cn1c(=O)n([C@H]2CCCOC2)c2c3cc(-c4ccc(COCCN5CCC(F)CC5)nc4)ccc3nnc21 [Example 182, (S)-8-(6-((2-(4-fluoropiperidin-1-yl)ethoxy)methyl)pyridin-3-yl)-3-methyl-1-(tetrahydro-2H-pyran-3-yl)-1H-imidazo[4,5-c]cinnolin-2(3H)-one] |  | 21 nM
Cn1c(=O)n([C@H]2CCCOC2)c2c3cc(-c4ccc(COCCN5CC6CC6C5)nc4)ccc3nnc21 (stereo partly drawn) [Example 183, 8-(6-((2-(3-azabicyclo[3.1.0]hexan-3-yl)ethoxy)methyl)pyridin-3-yl)-3-methyl-1-((S)-tetrahydro-2H-pyran-3-yl)-1H-imidazo[4,5-c]cinnolin-2(3H)-one] |  | 20 nM
CC(C)n1c(=O)n(C)c2nnc3ccc(-c4ccc([C@@H](C)OCC(=O)O)nc4)cc3c21 [Example 216, (R)-2-(1-(5-(1-isopropyl-3-methyl-2-oxo-2,3-dihydro-1H-imidazo[4,5-c]cinnolin-8-yl)pyridin-2-yl)ethoxy)acetic acid] |  | 339 nM
CC(C)n1c(=O)n(C)c2nnc3ccc(-c4ccc(C(C)(C)OCCN5CC6CC6C5)nc4)cc3c21 (stereo not shown) [Example 217, 8-(6-(2-(2-(3-azabicyclo[3.1.0]hexan-3-yl)ethoxy)propan-2-yl)pyridin-3-yl)-1-isopropyl-3-methyl-1H-imidazo[4,5-c]cinnolin-2(3H)-one] |  | 72 nM
CCC(OCCN1CCCC1)c1ccc(-c2ccc3nnc4c(c3c2)n(C(C)C)c(=O)n4C)cn1 (stereo not shown) [Example 219, 1-isopropyl-3-methyl-8-(6-(1-(2-(pyrrolidin-1-yl)ethoxy)propyl)pyridin-3-yl)-1H-imidazo[4,5-c]cinnolin-2(3H)-one] |  | 57 nM
CCCC(OCCN1CCCC1)c1ccc(-c2ccc3nnc4c(c3c2)n(C(C)C)c(=O)n4C)cn1 (stereo not shown) [Example 220, 1-isopropyl-3-methyl-8-(6-(1-(2-(pyrrolidin-1-yl)ethoxy)butyl)pyridin-3-yl)-1H-imidazo[4,5-c]cinnolin-2(3H)-one] |  | 147 nM
CC(C)C(OCCN1CCCC1)c1ccc(-c2ccc3nnc4c(c3c2)n(C(C)C)c(=O)n4C)cn1 (stereo not shown) [Example 221, 1-isopropyl-3-methyl-8-(6-(2-methyl-1-(2-(pyrrolidin-1-yl)ethoxy)propyl)pyridin-3-yl)-1H-imidazo[4,5-c]cinnolin-2(3H)-one] |  | 156 nM
